# Measurements as given in ChEMBL document CHEMBL1201862, “PubChem BioAssay data set” (2004).
# Active and inactive are the calls of the source.
# Legend:
# [1] = biological target: T1, Rac GTPase-activating protein 1 (Homo sapiens, UniProt Q9H0H5); experiment: blockers of MgcRacGAP-driven Rac1 GTP hydrolysis – biochemical, ADP Hunter fluorescence, primary and confirmatory, confirmation (AID 624330); type: functional
# T1 sequence (Q9H0H5 whole entry): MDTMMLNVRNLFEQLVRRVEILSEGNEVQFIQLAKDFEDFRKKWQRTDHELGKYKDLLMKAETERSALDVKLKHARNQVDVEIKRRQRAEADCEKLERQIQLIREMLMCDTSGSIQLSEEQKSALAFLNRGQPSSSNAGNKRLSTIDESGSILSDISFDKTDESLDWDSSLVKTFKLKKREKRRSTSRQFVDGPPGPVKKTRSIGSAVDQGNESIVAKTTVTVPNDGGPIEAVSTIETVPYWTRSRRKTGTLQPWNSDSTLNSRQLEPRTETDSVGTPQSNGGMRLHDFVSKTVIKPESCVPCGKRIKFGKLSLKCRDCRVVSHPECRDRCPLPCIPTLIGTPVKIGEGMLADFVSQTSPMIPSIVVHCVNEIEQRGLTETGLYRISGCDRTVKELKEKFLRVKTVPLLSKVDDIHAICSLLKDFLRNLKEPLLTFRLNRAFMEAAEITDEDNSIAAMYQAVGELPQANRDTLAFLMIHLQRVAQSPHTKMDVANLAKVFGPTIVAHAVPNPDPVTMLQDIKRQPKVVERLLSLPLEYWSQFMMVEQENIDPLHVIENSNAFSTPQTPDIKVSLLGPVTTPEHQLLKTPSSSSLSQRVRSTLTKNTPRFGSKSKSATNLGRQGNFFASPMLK
# [2] = NIH-3T3 fibroblast cytotoxicity, dose response, cytotoxicity control, cell-based, fluorescence, Alamar Blue, secondary assay (AID 2327); type: functional;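 also: NIH-3T3 mouse fibroblasts cultured with fluconazole at 8 µg/mL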
# [3] = tested on: Streptococcus sp. 'group A'; experiment: Streptococcus pyogenes SK(-)GAS viability under kanamycin – luminescence, BacTiterGlo, confirmation, counter-screen for streptokinase expression inhibitor project, dose response (AID 1900); type: functional, organism-based
# Streptokinase A = biological target: T2, Streptokinase A (Streptococcus pyogenes serotype M1, UniProt P10520); experiment: viability-normalized secreted streptokinase activity reduction – plasminogen activation absorbance, OD405, dose response (AID 1914); type: functional, Streptococcus pyogenes M1 GAS;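 also: secreted streptokinase activity via plasminogen activation per viability signal from cell pellet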
# T2 sequence (P10520 whole entry): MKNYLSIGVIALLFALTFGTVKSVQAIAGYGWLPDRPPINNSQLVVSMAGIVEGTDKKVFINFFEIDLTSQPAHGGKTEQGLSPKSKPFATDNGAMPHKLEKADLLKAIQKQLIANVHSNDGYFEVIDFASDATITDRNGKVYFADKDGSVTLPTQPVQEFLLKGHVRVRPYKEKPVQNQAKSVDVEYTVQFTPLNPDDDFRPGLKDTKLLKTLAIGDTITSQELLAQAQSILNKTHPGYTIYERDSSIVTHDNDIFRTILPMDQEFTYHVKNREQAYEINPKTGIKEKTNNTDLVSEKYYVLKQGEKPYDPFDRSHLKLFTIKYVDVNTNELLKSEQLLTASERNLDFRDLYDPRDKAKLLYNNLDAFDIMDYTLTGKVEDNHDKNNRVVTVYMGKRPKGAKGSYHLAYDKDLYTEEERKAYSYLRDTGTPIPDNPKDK
# [4] = fluconazole-exposed Candida albicans growth modulators – fluorescence, retest, confirmation (AID 2467); type: functional, cell-based
# Streptococcus = experiment: GAS UMAA2166 growth inhibition – luminescence, BacTiterGlo, counter-screen for streptokinase expression inhibitor project, dose response (AID 1915); type: functional, organism-based;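 also: potency for reduction of bacterial viability or growth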
# Cytochrome P450 1A2 = biological target: T3, Cytochrome P450 1A2 (Homo sapiens, UniProt P05177);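 also: PubChem cytochrome P450 panel assay, CYP1A2 panel member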
# T3 sequence (P05177 whole entry): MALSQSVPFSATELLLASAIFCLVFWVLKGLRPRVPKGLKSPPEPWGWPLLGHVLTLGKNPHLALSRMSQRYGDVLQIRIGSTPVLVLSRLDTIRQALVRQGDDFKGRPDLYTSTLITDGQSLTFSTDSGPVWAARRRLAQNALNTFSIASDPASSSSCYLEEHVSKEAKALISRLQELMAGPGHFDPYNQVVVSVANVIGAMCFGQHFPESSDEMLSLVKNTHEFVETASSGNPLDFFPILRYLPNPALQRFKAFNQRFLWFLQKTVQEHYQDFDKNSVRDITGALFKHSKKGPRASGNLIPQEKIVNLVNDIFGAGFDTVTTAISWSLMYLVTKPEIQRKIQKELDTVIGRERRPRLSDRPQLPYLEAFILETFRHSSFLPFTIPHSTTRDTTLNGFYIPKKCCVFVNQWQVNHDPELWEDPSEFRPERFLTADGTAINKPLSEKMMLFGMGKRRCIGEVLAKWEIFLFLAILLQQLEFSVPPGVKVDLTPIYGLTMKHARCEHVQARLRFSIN
# Cytochrome P450 3A4 = Cytochrome P450 3A4 (Homo sapiens, UniProt P08684);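 also: CYP3A4 tested as one member of a cytochrome P450 panel screen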
# [5] = P. falciparum Dd2 growth inhibitors, dose response, SYBR Green, cherry-picked samples (AID 1159567); type: functional, cell-based
# Cytochrome P450 2C19 = Cytochrome P450 2C19 (Homo sapiens, UniProt P33261); experiment: Cytochrome panel assay with activity outcomes. Panel member name: p450-cyp2c19 Compounds with AC50 equal or less than 10 uM are considered active; type: functional; conditions: read-out: AC50
# cells = type: functional
# Cytochrome P450 2D6 = Cytochrome P450 2D6 (Homo sapiens, UniProt P10635);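 also: CYP2D6 member of a cytochrome P450 panel assay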
# [6] = Luminescence Cell-Based Dose Response HTS to Identify Activators of Luciferase Translation or Activity in H4 […] Cells. [Related pubchem assays: 1829 (Project Summary), 1814 (Primary HTS)]; type: functional
# H4 = experiment: Luminescence Cell-Based Dose Response HTS to Identify Activators of 5'UTR Stem-Loop Driven Prion Protein mRNA Translation in H4 Neuroglioblastoma Cells. [Related pubchem assays: 1829 (Project Summary), 1814 (Primary HTS)]; type: functional; conditions: Homo sapiens
# [7] = luciferase reporter signal suppression in cells – H4 neuroglioma cells, luminescence, dose response (AID 1990); type: functional, cell-based
# [8] = Luminescence Cell-Based Dose Response HTS to Identify Inhibitors of 5'UTR Stem-Loop Driven Prion Protein mRNA Translation in H4 Neuroglioblastoma Cells. [Related pubchem assays: 1827 (Project Summary), 1813 (Primary HTS)]; type: functional
# [9] = alpha-synuclein stem-loop luciferase translation blockers – H4 neuroglioma cells, luminescence, confirmation (AID 1988); type: functional, cell-based
# [10] = biological target: Luciferin 4-monooxygenase (Photinus pyralis, UniProt P08659); experiment: inhibition of purified Photinus pyralis luciferase – biochemical, luminescence, dose response (AID 1891)
# [11] = Luminescence Cell-Based Dose Confirmation HTS to Identify Inhibitors of Platelet Dense Granule Release. [Related pubchem assays: 1663 (Primary HTS), 1678 (Summary of Project)]; type: functional
# [12] = biological target: T4, Heat shock factor protein 1 (Mus musculus, UniProt P38532); experiment: enhancement of HSF1-driven luciferase signal – cell-based, NIH3T3, luminescence, dose retest, confirmation (AID 435004); type: functional;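 also: stress induced by proteasome inhibitor MG132 added 30 min after compound; luciferase reporter driven by HSF1 response element in NIH3T3 cells; actives raise luminescence as potentiators of the MG132 stress response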
# T4 sequence (P38532 whole entry): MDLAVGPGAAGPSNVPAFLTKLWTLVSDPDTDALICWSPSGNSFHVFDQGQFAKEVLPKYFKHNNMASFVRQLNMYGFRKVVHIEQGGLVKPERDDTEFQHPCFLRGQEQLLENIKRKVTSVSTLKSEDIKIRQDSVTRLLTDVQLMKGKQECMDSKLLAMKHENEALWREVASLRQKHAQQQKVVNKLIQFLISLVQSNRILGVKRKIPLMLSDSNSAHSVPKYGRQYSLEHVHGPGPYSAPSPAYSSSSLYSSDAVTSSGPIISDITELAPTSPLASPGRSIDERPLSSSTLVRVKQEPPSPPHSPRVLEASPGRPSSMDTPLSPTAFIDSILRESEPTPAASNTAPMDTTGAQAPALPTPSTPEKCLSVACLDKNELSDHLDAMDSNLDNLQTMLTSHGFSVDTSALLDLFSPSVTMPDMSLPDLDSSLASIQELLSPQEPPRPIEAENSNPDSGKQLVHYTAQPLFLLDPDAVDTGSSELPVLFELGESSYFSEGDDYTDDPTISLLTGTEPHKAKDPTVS
# [13] = Trypanosoma cruzi growth suppression in host cells – NIH3T3 host cells, beta-gal luminescence, confirmation (AID 2044); type: functional, cell-based;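 also: intracellular parasites grown in NIH/3T3 mouse fibroblasts as host cells; luminescent beta-galactosidase reporter signal from transgenic T. cruzi replicating inside host cells; inhibitors lower the luminescence signal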
# [14] = NIH3T3 cell viability loss – ATP luminescence, mouse fibroblasts, counter-screen, dose response (AID 2010); type: functional, cell-based;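 also: cells exposed to compound for about 90 hours before reading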
# Cytochrome P450 2D6, sequence (P10635 whole entry): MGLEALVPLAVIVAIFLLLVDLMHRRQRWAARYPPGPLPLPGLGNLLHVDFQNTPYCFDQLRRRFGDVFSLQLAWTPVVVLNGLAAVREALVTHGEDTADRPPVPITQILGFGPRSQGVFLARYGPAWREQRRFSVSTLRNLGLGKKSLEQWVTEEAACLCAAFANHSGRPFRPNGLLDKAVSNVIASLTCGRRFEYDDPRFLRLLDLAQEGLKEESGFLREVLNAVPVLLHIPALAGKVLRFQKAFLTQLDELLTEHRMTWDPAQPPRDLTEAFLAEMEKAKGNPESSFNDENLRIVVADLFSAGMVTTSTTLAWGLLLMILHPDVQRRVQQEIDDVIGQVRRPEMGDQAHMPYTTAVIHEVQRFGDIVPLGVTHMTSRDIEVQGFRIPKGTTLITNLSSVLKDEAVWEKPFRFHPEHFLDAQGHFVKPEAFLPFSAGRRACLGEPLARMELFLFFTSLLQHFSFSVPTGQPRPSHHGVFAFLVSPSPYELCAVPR
# Cytochrome P450 2C19, sequence (P33261 whole entry): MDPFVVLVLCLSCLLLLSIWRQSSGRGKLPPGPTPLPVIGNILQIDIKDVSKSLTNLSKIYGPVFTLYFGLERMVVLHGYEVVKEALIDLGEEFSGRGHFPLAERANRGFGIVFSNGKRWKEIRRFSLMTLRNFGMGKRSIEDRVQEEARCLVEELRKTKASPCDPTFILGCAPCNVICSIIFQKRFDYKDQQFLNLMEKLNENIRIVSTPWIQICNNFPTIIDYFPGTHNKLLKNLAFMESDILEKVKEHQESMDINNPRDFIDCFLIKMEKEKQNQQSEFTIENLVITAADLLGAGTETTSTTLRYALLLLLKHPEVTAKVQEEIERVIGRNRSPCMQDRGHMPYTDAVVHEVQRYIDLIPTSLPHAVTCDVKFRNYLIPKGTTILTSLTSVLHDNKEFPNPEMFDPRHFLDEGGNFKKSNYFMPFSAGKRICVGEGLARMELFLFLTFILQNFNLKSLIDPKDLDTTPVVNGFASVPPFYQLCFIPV
# Cytochrome P450 3A4, sequence (P08684 whole entry): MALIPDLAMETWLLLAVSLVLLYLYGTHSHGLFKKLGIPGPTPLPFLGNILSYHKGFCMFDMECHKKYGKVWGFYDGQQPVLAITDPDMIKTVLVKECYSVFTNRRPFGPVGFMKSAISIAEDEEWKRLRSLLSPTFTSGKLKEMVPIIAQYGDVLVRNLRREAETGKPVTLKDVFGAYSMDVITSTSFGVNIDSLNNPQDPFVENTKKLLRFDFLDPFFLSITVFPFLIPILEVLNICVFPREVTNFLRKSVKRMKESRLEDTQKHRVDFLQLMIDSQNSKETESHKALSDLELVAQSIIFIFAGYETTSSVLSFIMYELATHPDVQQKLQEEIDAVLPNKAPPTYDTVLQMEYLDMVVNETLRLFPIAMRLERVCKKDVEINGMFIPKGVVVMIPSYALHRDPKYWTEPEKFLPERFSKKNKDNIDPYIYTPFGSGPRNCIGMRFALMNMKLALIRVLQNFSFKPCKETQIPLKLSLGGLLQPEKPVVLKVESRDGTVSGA
# Luciferin 4-monooxygenase, sequence (P08659 whole entry): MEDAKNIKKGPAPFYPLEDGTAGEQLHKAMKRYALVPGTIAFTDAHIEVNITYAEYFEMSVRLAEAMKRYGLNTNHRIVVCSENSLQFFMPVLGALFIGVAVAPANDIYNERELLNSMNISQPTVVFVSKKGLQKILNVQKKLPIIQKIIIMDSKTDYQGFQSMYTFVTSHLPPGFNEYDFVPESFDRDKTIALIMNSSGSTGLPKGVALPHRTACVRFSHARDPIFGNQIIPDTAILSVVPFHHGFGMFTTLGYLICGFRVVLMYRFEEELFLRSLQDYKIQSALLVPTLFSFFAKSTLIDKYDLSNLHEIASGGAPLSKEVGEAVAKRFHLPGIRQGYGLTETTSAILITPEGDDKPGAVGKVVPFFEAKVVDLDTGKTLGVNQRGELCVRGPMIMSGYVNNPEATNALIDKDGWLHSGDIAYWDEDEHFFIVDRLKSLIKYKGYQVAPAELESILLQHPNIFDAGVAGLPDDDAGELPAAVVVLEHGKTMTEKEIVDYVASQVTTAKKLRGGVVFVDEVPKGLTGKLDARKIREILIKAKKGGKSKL
structure (smiles),measurement,setting,value
CCCCNCC#CCOc1cc(C)ccc1C(C)C,IC50,[1],196 µM (active)
Oc1c(C(Nc2cccc(C(F)(F)F)c2)c2cccnc2)ccc2cccnc12 (stereo not given),EC50,[2],> 150 µM (inactive)
same,EC50,[3],1.71 µM (active)
same,EC50,Streptokinase A,> 150 µM (not active)
same,EC50,[4],> 38 µM (not active)
same,EC50,Streptococcus,15.6 µM (active)
O=C(CNS(=O)(=O)c1ccc(Br)s1)N1CCC2(CC1)OCCO2,AC50,Cytochrome P450 1A2,15.8 µM (inconclusive)
same,AC50,Cytochrome P450 3A4,25.1 µM (inconclusive)
Cc1cccc(S(=O)(=O)N2CCCCN3[C@H](C2)[C@@H](c2ccc(-c4cccnc4)cc2)[C@@H]3CO)c1,AC50,[5],4.88 µM (active)
CC(=O)Nc1cccc2cc(O)ccc12,IC50,[1],36.8 µM (active)
COC(=O)c1cc2n(n1)CCN(Cc1ccccc1F)C2=O,AC50,Cytochrome P450 2C19,5.01 µM (inconclusive)
same,AC50,Cytochrome P450 1A2,15.8 µM (inconclusive)
COCCOC(=O)c1c(C)oc2ccc(OC(=O)c3ccco3)cc12,IC50,cells,> 50 µM (active)
COc1cccc(NC(=O)c2cc3ccccc3oc2=O)c1,IC50,cells,34.4 µM (active)
COc1ccccc1-c1ccc2ncnc(NCCN3CCOCC3)c2c1,AC50,Cytochrome P450 2D6,39.8 µM (inconclusive)
CC(C)CN(Cc1c(O)ccc2ccccc12)CC(C)C,IC50,[1],47.5 µM (active)
CS(=O)(=O)Nc1cccc(-c2ccc3ncnc(Nc4ccccc4)c3c2)c1,AC50,Cytochrome P450 2D6,25.1 µM (inconclusive)
Cn1ccnc1SCC(=O)Nc1sccc1C#N,AC50,Cytochrome P450 2C19,7.08 µM (inconclusive)
same,AC50,Cytochrome P450 2D6,25.1 µM (inconclusive)
O=c1c(-c2cccs2)nc2cnc(Nc3ccccc3)nc2n1C[C@H]1CCCO1,AC50,Cytochrome P450 1A2,2.51 µM (inconclusive)
same,AC50,Cytochrome P450 3A4,10 µM (inconclusive)
CN1CC[C@@]2(CCCN(C(=O)c3csnn3)C2)C1,AC50,Cytochrome P450 2D6,39.8 µM (inconclusive)
COc1ccc(NCc2cc(O)nc3ccccc23)cc1,IC50,[1],50.5 µM (active)
CC(=O)Oc1ccc(C)cc1-n1nc2ccccc2n1,EC50,[6],0.445 µM (active)
same,EC50,H4,2.63 µM (active)
COc1ccc(NCC(O)Cn2c(C)c(C)c3ccccc32)cc1 (stereo not given),IC50,[1],70.7 µM (active)
Clc1ccccc1-c1nc(/C=N/N2CCOCC2)c2ccccn12,IC50,[1],33.6 µM (active)
CCN(CC)c1ccc(NC(=O)c2ccc(S(=O)(=O)N3CCOCC3)cc2)cc1,IC50,[1],71.9 µM (active)
O=C1C2CCCN2C(c2ccccc2)N1c1ccccn1 (stereo not given),EC50,[2],> 160 µM (inactive)
same,EC50,[4],> 38 µM (not active)
COc1ccc(S(=O)(=O)N2CC[C@@H]3[C@H]2c2cc(-c4ccc(C#N)cc4)ccc2N[C@@H]3CO)cc1,AC50,[5],9.46 µM (active)
COc1ccccc1NC(=O)N(Cc1ccco1)Cc1cc2ccc(C)c(C)c2nc1O,EC50,[7],> 60 µM (not active)
same,EC50,[8],27.6 µM (active)
same,EC50,[9],11 µM (active)
same,EC50,[10],> 112 µM (not active)
same,EC50,[11],> 112 µM (not active)
same,EC50,[12],> 260 µM (inactive)
Cc1cccc(NC(=O)N(Cc2nc(O)c3ccccc3n2)C2CCCC2)c1,AC50,Cytochrome P450 2D6,39.8 µM (inconclusive)
CCCc1cn([C@H]2C[C@@H]3O[C@H](CO)CC[C@@H]3O[C@@H]2CCc2ccc(-c3ccc(OC)cc3)cc2)nn1,AC50,[5],4.34 µM (active)
Clc1cccc(N/N=C/c2ccc(N3CCOCC3)cc2)c1,EC50,[13],2.74 µM (active)
same,EC50,[14],> 60 µM (not active)
same,AC50,Cytochrome P450 2D6,7.08 µM (inconclusive)
Cc1nc(Cl)cc(N/N=C/c2ccc(O)cc2O)n1,IC50,[1],16.6 µM (active)
CN1CCc2c1nc1ccccc1c2NC(=O)CN1CCCC1,IC50,[1],117 µM (active)
C=C(C)C1Cc2c(C)nn(-c3nc(C)cc(C)n3)c2C1 (stereo not given),EC50,[3],25 µM (active)
same,EC50,Streptokinase A,> 150 µM (not active)
same,EC50,Streptococcus,> 150 µM (not active)
same,IC50,cells,3.19 µM (active)
O=C(OCC(=O)N1CCc2ccccc21)c1ccc([N+](=O)[O-])cc1,IC50,cells,7.65 µM (active)
CC1COc2ccccc2N1S(=O)(=O)c1ccccc1 (stereo not given),EC50,[2],> 150 µM (inconclusive)
Cc1sc(NC(=O)c2ccc(Br)s2)c(C(N)=O)c1C,EC50,[2],> 150 µM (inactive)
same,EC50,[4],> 38 µM (not active)
O=C(Nc1nnc(-c2ccc(Cl)cc2)o1)C1=COCCO1,IC50,cells,4.83 µM (active)
CS(=O)(=O)N1CCC2(CCCN(C(=O)Nc3ccccc3)C2)CC1,AC50,Cytochrome P450 1A2,15.8 µM (inconclusive)
Sc1nnc(C2CCCCC2)n1/N=C/c1cccc(Cl)c1Cl,EC50,[7],15.2 µM (active)
same,EC50,[3],4.7 µM (active)
same,EC50,[8],> 120 µM (not active)
same,EC50,[9],15.1 µM (active)
same,EC50,Streptokinase A,> 150 µM (not active)
same,EC50,Streptococcus,7.5 µM (active)
N#C/C(=C/c1ccc(N2CCCC2)c([N+](=O)[O-])c1)c1nc2ccccc2[nH]1,AC50,Cytochrome P450 1A2,3.55 µM (inconclusive)
COc1cccc(/C=N/NC(=O)c2cc(-c3cccn3C)[nH]n2)c1O,EC50,[2],23.5 µM (inconclusive)
same,EC50,[4],2.95 µM (active)
Cc1ccc(S(=O)(=O)C(C#N)c2nc3ccccc3nc2N2CCN(C)CC2)cc1C (stereo not given),EC50,[2],> 150 µM (inactive)
same,EC50,[4],> 38 µM (not active)
